{
  "source": "patent US20110117210A1",
  "about": "“Therapeutic treatment of human cancers using simple salts of zinc” (priority 2009, published 2011)",
  "key": {"[1]": {"test_system": "human thyroid cancer cells", "details": "in vitro; cited from earlier work"}, "[2]": {"test_system": "human colorectal cancer cells", "details": "in-vitro; cited from earlier work"}, "metastatic melanoma": {"test_system": "metastatic melanoma", "assay": "Clinical Case History 2: oral zinc salt treatment of a patient with metastatic melanoma", "format": "in vivo, human", "details": "oral 600 mg per day; for edema of right leg: July 2009 follow-up; for metastatic nodes in abdominal cavity, computer tomography and ultrasound: Oct. 20, 2009, then 900 mg per 24 hours July-October 2009", "description": "In November 2008, the skin lesion became progressively larger and ulcerated. Then in December 2008, a skin tumor resection and dissection of an enlarged right inguinal lymph nodes were performed, yielding melanoma and inguinal lymph nodes with metastatic disease.\nIn January 2009, a course of conventional chemotherapy was prescribed and performed for the patient.\nThe patient was subsequently discharged from the hospital, with a poor prognosis (up to 2 months survival time).\nThe patient then began orally taking Zinc Picolinate at a 600 mg per day dosage. They orally ingested Zinc Picolinate daily, for 5 months time (from February, 2009 to May, 2009); and then Zinc Sulfate daily for 1 month (June, 2009) at a dose of 600 mg per day (300 mg twice a day with a meal) and for 4 months (from July, 2009 to October, 2009) at a dose of 900 mg per 24 hours (300 mg every 8 hours with a meal)."}, "[3]": {"assay": "Monitoring of treated cancer patients for manifestations of zinc toxicity", "format": "in vivo, human", "details": "for toxic effects of zinc treatment: oral 600 mg per day 5 months, 900 mg per day 4 months", "description": "Step 4: Periodically monitoring the status of the afflicted human subject during the therapeutic treatment regimen to confirm that no manifestations of zinc toxicity appear.\nThe levels of zinc can be monitored in plasma by conventional blood test. A medically normal concentration of zinc in human plasma is about 100 μg/100 mL.\nThe oncologist or physician should therefore periodically examine their patient in two ways during treatment:\nFirst, the patient should be physically examined on a regular time basis for symptoms of zinc toxicity. As noted above, the risk and dangers of zinc toxicity in humans can occur in both acute and chronic forms; and symptoms of zinc toxicity can appear as nausea, vomiting, loss of appetite, abdominal cramps, diarrhea, and headaches.\nSecond, samples of the patient's blood should be taken routinely and regularly tested for zinc content using the blood chemistry assays and instrumentation conventionally known and commercially sold for this purpose. Although the values for the individual patient will likely vary considerably, the test results should approximate the medically normal concentration of zinc in human plasma of about 100 μg/100 mL.\nIn addition, although it is considered very unlikely that any manifestations of zinc toxicity will appear in an individual patient over the duration of therapeutic treatment with the present invention, it is deemed to be proper and necessary to verify that no serious manifestations of zinc toxicity appear regardless of how long the treatment regimen is continued. This is considered to be especially important in view of the likelihood of months and years of therapeutic treatment for some patients. Accordingly, the testing for undesirable zinc effects and toxicity should continue concurrently with and over the full duration of the therapeutic treatment for the patient."}, "[4]": {"test_system": "human prostate cancer cells", "details": "cited from earlier work"}, "[5]": {"details": "80 mg per day of zinc for 6.3 years on average; cited from earlier work"}, "HIPK2i cells": {"test_system": "HIPK2i cells", "details": "zinc added to culture medium concomitant with adriamycine (ADR); cited from earlier work"}, "[6]": {"molecular_target": "GSK-3 (Glycogen Synthase Kinase-3) (Homo sapiens, UniProt P49841)", "sequence (P49841 whole entry)": "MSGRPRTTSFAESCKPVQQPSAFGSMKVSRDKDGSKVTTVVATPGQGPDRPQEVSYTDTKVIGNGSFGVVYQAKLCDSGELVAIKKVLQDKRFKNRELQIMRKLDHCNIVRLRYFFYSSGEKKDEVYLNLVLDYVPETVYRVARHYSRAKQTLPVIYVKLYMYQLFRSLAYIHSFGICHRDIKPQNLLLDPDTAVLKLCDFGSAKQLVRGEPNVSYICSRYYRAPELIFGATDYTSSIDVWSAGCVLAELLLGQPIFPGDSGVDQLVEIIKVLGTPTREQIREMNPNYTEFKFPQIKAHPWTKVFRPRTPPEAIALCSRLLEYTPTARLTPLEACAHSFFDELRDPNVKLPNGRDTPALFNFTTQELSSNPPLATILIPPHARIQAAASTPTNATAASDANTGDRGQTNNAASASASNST", "details": "cited from earlier work"}, "[7]": {"details": "human, cited from earlier work"}, "[8]": {"details": "cited from earlier work"}, "[9]": {"details": "after ingesting 4 grams (570 milligrams of elemental zinc); cited from earlier work"}, "[10]": {"test_system": "lung cancer (squamous cell carcinoma)", "assay": "Clinical Case History 3: oral zinc salt treatment of a lung cancer patient after radiotherapy", "format": "in vivo, human", "description": "A person afflicted with lung cancer (tumor stenosis of right upper lobe bronchus, squamous cell carcinoma) had been conventionally treated with radiotherapy.\nThe patient then began to take Zinc Picolinate daily, for 1 month, at a dose of 600 mg per day (orally ingested as 300 mg of Zinc Picolinate taken twice a day with meals). […] The patient continued to take Zinc Picolinate orally from August, 2009 till October, 2009—but at a dose of 900 mg per day (orally ingested as 300 mg of Zinc Picolinate every 8 hours with meals)."}, "[11]": {"test_system": "squamous cell carcinoma of the lung", "assay": "Clinical Case History 1: oral zinc salt treatment of a lung cancer patient", "format": "in vivo, human", "description": "A person was admitted to hospital with a cough, life threatening hemoptysis on Jan. 30, 2009. […] Because the patient denied either operation or chemotherapy, their survival prognosis was poor, up to 2 months survival time.\nThe patient then began taking Zinc Picolinate, orally, at a dose concentration of 200 mg a day. The patient orally ingested Zinc Picolinate daily, for 5 months (from February, 2009 to July, 2009) at a concentration of 200 mg per day, as a dose of 100 mg ingested twice a day with a meal. To date, the patient has not taken any other chemotherapeutic anticancer drug/agent, nor has undergone any other form of conventional cancer treatment.\nThe patient has been orally ingesting 200 mg of Zinc Picolinate per day for nearly six calendar months time. […] The patient has been orally taking 600 mg of Zinc Picolinate daily from August, 2009 to October, 2009."}, "[12]": {"details": "water and aqueous based fluids, cited from earlier work"}, "[13]": {"details": "Case History 2, metastatic melanoma"}, "[14]": {"details": "Case History 2, metastatic melanoma, oral 600-900 mg per day"}},
  "note": "pIC50: −log10 of the molar value. Like-named read-outs stand apart in the source and are kept apart here.",
  "data": [
    {"molecule": "[Cl-].[Cl-].[Zn+2]", "note": "[Zinc Chloride]", "values": [
      {"measurement": "apoptosis", "setting": "[1]", "result": "induces apoptosis"},
      {"measurement": "proliferation", "setting": "[1]", "result": "inhibits proliferation"},
      {"measurement": "proliferation", "setting": "[2]", "result": "inhibits proliferation"}
    ]},
    {"molecule": "O=S(=O)([O-])[O-].[Zn+2]", "note": "[Zinc Sulfate]", "values": [
      {"measurement": "edema of right leg", "setting": "metastatic melanoma", "result": "significantly decreased"},
      {"measurement": "metastatic nodes in abdominal cavity, computer tomography and ultrasound", "setting": "metastatic melanoma", "result": "complete regression"},
      {"measurement": "toxic effects of zinc treatment", "setting": "[3]; [13]", "result": "no toxic effects"},
      {"measurement": "weight loss", "setting": "[3]; [14]", "result": "no weight loss"},
      {"measurement": "apoptosis", "setting": "[4]", "result": "induce apoptosis"},
      {"measurement": "proliferation", "setting": "[4]", "result": "inhibit proliferation"}
    ]},
    {"molecule": "[O]=[Zn]", "note": "[zinc oxide]", "values": [
      {"measurement": "hospitalizations for genitourinary causes", "setting": "[5]", "result": "significant increase"}
    ]},
    {"molecule": "[Zn]", "note": "[zinc]", "values": [
      {"measurement": "wtp53 transcription activity", "setting": "HIPK2i cells", "result": "restored wtp53 transcription activity"},
      {"measurement": "pIC50", "setting": "[6]", "result": 4.82},
      {"measurement": "intake with reported reductions in a copper-containing enzyme (marker of copper status)", "setting": "[7]; up to 10 weeks", "result": "approximately 60 mg/day"},
      {"measurement": "intake associated with chronic effects: low copper status, altered iron function, reduced immune function, reduced high-density lipoproteins", "setting": "[7]", "result": "150-450 mg of zinc per day"},
      {"measurement": "level of zinc in diet known to cause chronic zinc toxicosis", "setting": "[8]", "result": "> 2,000 ppm"}
    ]},
    {"molecule": "Zinc Gluconate", "values": [
      {"measurement": "time to severe nausea and vomiting", "setting": "[9]", "result": "≤ 30", "unit": "min"}
    ]},
    {"molecule": "Zinc Picolinate", "values": [
      {"measurement": "overall physical condition (cough, shortness of breath)", "setting": "[10]; 600 mg per day 1 month, then 900 mg per day 3 months", "result": "significant improvement"},
      {"measurement": "tumor size, bronchoscopy", "setting": "[10]; Oct. 21, 2009, 600 mg per day 1 month, then 900 mg per day August-October 2009", "result": "significant decrease"},
      {"measurement": "right upper lobe bronchus previously obstructed by tumor, bronchoscopy", "setting": "[10]; Oct. 21, 2009, 90% of bronchial lumen obstructed Jun. 14, 2009, 600 then 900 mg per day", "result": "complete opening"},
      {"measurement": "decrease in the size of the lung tumor, X-ray examination", "setting": "[10]; after one month oral 600 mg per day (300 mg twice a day)", "result": 2, "unit": "fold"},
      {"measurement": "edema of right leg", "setting": "metastatic melanoma", "result": "significantly decreased"},
      {"measurement": "metastatic nodes in abdominal cavity, computer tomography and ultrasound", "setting": "metastatic melanoma", "result": "complete regression"},
      {"measurement": "weight loss", "setting": "[3]; Case History 1, lung cancer, nine months oral treatment, 200 then 600 mg per day", "result": "no weight loss"},
      {"measurement": "toxic effects of treatment", "setting": "[3]; Case History 1, lung cancer, oral 200 mg per day, later 600 mg per day", "result": "no toxic effects"},
      {"measurement": "toxic effects of zinc treatment", "setting": "[3]; [13]", "result": "no toxic effects"},
      {"measurement": "weight loss", "setting": "[3]; [14]", "result": "no weight loss"},
      {"measurement": "zinc toxic effects", "setting": "[3]; Case History 3, lung cancer, oral 600 mg per day 1 month, 900 mg per day 3 months", "result": "no zinc toxic effects"},
      {"measurement": "weight loss", "setting": "[3]; Case History 3, lung cancer, oral 600-900 mg per day", "result": "no weight loss"},
      {"measurement": "zinc toxicity", "setting": "[3]; three cancer patients (Case Histories 1-3), 200 mg to 900 mg per day, daily for 4-9 months", "result": "no zinc toxicity"},
      {"measurement": "signs of cancer progression", "setting": "[11]; November 2009, nine months of treatment: 200 mg per day, then 600 mg daily August-October 2009", "result": "no signs of cancer progression"},
      {"measurement": "clinical outcome of treatment (tumor growth, disease status)", "setting": "[11]; oral 200 mg per day (100 mg twice a day), 5 months, no other cancer treatment", "result": "suppression of tumor growth and stabilization of the disease"},
      {"measurement": "right pleural effusion, computer tomography", "setting": "[11]; oral 200 mg per day about 5 months, Jul. 1, 2009, effusion present Jan. 14, 2009", "result": "no right pleural infusion"},
      {"measurement": "changes in the size of enlarged subcarinal lymph nodes, computer tomography", "setting": "[11]; oral 200 mg per day about 5 months, Jul. 1, 2009 vs Jan. 14, 2009", "result": "no meaningful changes"},
      {"measurement": "changes in the size of primary lung tumor, computer tomography", "setting": "[11]; person, oral 200 mg per day (100 mg twice a day) about 5 months, Jul. 1, 2009 vs Jan. 14, 2009", "result": "no substantive changes"},
      {"measurement": "Water Solubility", "setting": "[12]", "result": "slightly soluble"},
      {"measurement": "Water Solubility", "setting": "[12]; listed as zinc picolinate", "result": "only slightly soluble"}
    ]}
  ]
}
